Experiments:
[1] = tested on: sepsis caused by E. coli bacteria; assay: Biochemical blood analyses following E. coli administration; format: in vivo, mice; details: 6 h after E. coli administration
Description: (§1) In another set of experiments and after 6 h of E. coli administration, animals were lightly anesthetized with ether, and blood samples were collected, centrifuged and the resultant plasma were stored at −80° C. and used within 48 h. The levels of TNF-α, IL-1α, IL-2 and IL-10 were determined using an ELISA technique. Important biochemical parameters including blood serum creatinine, blood urea nitrogen, alanine transferase (ALT), albumin, and total lactate dehydrogenase (LDH) and creatinine kinase (CK) were also assessed in treated animals using commercially available kits according to the manufacturer's directions.

[2] = tested on: parental and multidrug resistant tumor cells; details: cited from earlier work
[3] = tested on: endotoxin (lipopolysaccharide, LPS Escherichia coli O111:B4) induced sepsis; assay: Endotoxin sepsis model (LPS challenge), survival by Kaplan-Meier; format: in vivo, mice; details: 4 h before 2 mg/kg LPS, followed 4 days, P<0.01
Description: 1.1 Endotoxin Sepsis Model (LPS Escherichia coli O111:B4)
Two groups of animals (ten mice each) weighing ˜25 g were treated intraperitoneally with 1 or 2 mg/kg (single dose) of thymoquinone prepared in 10% DMSO; a control group (treated with only 10% DMSO) was also simultaneously run. Four hours after thymoquinone treatment, all groups were challenged with 2 mg/kg endotoxin (lipopolysaccharide, LPS) prepared in normal saline. Mortality of groups was followed for 4 days, and survival (primary endpoint) was calculated using Kaplan-Meier analysis.

[4] = tested on: E. coli (ATCC-25992); assay: Gram-negative bacteria sepsis model (E. coli challenge), survival by Kaplan-Meier; format: in vivo, mice; details: followed 2 days, P<0.01
Description: 1.2 Gram-Negative Bacteria Sepsis Model
Two groups of animals (twelve mice each) weighing ˜25 g were treated intraperitoneally with 0.75 or 1 mg/kg/day (for three days) of thymoquinone prepared in 10% DMSO; a control group (treated with only 10% DMSO) was also simultaneously run. Four hours after thymoquinone treatment, all groups were challenged with 2 μl/g E. coli (ATCC-25992, […] CFU/ml) prepared in normal saline. Mortality in treated groups was followed for 2 days, and survival (primary endpoint) was calculated using Kaplan-Meier analysis.

[5] = tested on: sepsis induced by E. coli bacteria; assay: Immunological serum analyses (ELISA) following E. coli administration; format: in vivo, mice; details: 6 h after E. coli administration
Description: as §1

[6] = cited from earlier work
[7] = PROWESS trial, compared to placebo; cited from earlier work

Compound | blood urea nitrogen (kidney dysfunction biomarker) ([1]; FIG. 4A) | serum creatinine (kidney dysfunction biomarker) ([1]; FIG. 4B) | alanine transferase (liver dysfunction biomarker) ([1]; FIG. 4C) | plasma albumin level ([1]; FIG. 4D) | total creatinine kinase (marker of tissue injury) ([1]; FIG. 4E) | total lactate dehydrogenase (marker of tissue injury) ([1]; FIG. 4F) | cytotoxicity to parental and multidrug resistant tumor cells [2] | protection efficacy against mortality in endotoxin induced sepsis ([3]; 1 mg/kg i.p. single dose) | protection efficacy against mortality in endotoxin induced sepsis ([3]; 2 mg/kg i.p. single dose) | protection efficacy against mortality in sepsis induced by Gram-negative bacteria ([4]; 0.75 mg/kg/day i.p. for three days) | protection efficacy against mortality in sepsis induced by Gram-negative bacteria ([4]; 1 mg/kg/day i.p. for three days) | TNF-α level ([5]; FIG. 5A) | IL-1α level ([5]; FIG. 5B) | IL-2 level ([5]; FIG. 5C) | IL-10 level ([5]; FIG. 5D) | efficacy in sepsis patients ([6]; patients with a low risk of death or pediatric patients) | 28-day mortality rate ([6]; subgroup with recent surgery and single-organ dysfunction, placebo 14.1%, P=0.03) | absolute decrease in mortality rate [7] | relative risk reduction (mortality) [7]
CC1=CC(=O)C(C(C)C)=CC1=O [thymoquinone, 2-isopropyl-5-methyl-1,4-benzoquinone] | Important reductions | Important reductions | Important reductions | improvement in albumin level | Important reductions | Important reductions | cytotoxic | about 80% | ~90% | about 90% | about 90% | Significant reductions | Significant reductions | Significant reductions | Significant reductions | – | – | – | –
drotrecogin alfa | – | – | – | – | – | – | – | – | – | – | – | – | – | – | – | not effective | 20.7% | 6% | 19%

Source: patent publication US8895625B2, “Protective effect of thymoquinone in sepsis” (King Saud University, priority 2009, dated 2014)
